Data on five molecules can be found in ChEMBL document CHEMBL3576800, “Discovery of a Potent and Orally Bioavailable Dual Antagonist of CC Chemokine Receptors 2 and 5” (ACS Med Chem Lett, 2015).

The test system of data set [1] is Liver microsome. The note with it: rat, microsomes.
Description: Drug metabolism in rat liver microsomes
Data set [2] in a line: Clearance in Sprague-Dawley rat at 2.5 mg/kg, iv after 0.25 to 24 hrs by LC/MS/MS method. The note with it: in vivo. The format is ADME, organism-based.
A short description of data set [3]: Oral bioavailability in Sprague-Dawley rat at 25 mg/kg after 0.25 to 24 hrs by LC/MS/MS method. The format is ADME, organism-based. Conditions: in vivo.
Data set [4] can be described thus: AUC in Sprague-Dawley rat at 25 mg/kg, po after 0.25 to 24 hrs by LC/MS/MS method. The format is ADME, organism-based. Set-up: time upper 24 hr, dose 25 mg/kg, time lower 0.25 hr, route oral. The note with it: in vivo.
Data set [5] is described as follows: Clearance in cynomolgus monkey at 1 mg/kg, iv after 0.25 to 24 hrs by LC/MS/MS method. Conditions: in vivo. Type of data set: ADME, organism-based, Macaca fascicularis.
Data set [6] in a line: Oral bioavailability in cynomolgus monkey at 1.4 mg/kg after 0.25 to 24 hrs by LC/MS/MS method. The note with it: in vivo. Type of data set: ADME, organism-based, Macaca fascicularis.
Data set [7] in a line: AUC in cynomolgus monkey at 1.4 mg/kg, po after 0.25 to 24 hrs by LC/MS/MS method. Type of data set: ADME, organism-based, Macaca fascicularis. More on the design: time 0.25-24 hr, dose 1.4 mg/kg, route oral. Conditions: in vivo.
The species entered for data set [8] is Mus musculus. The note with it: in vivo, po, 10 mg/kg, 4 h.

In the case of `CCCC[C@@H]1C[C@H](N(C)C(C)C)CC[C@@H]1NC(=O)CNC(=O)c1cccc(C(F)(F)F)c1`, in data set [1], the Drug metabolism is given as 0.17 nmol/min/mg.

`COC[C@@H]1C[C@H](N(C)C(C)C)CC[C@@H]1NC(=O)CNC(=O)c1cccc(C(F)(F)F)c1` gave a Drug metabolism in data set [1] of 0.01 nmol/min/mg.

As to `CCC[C@@H]1C[C@H](N(C)C(C)C)CC[C@@H]1N1CC[C@H](Nc2ncnc3ccc(C(F)(F)F)cc23)C1=O`, the clearance (usually a measure of how efficiently the substance is removed, as volume per time) worked out at 40 mL/min/kg in data set [2] and 25 mL/min/kg in data set [5]. The figures for the bioavailability in data set [3] and in data set [6] were 68% and 46%, respectively. For the same molecule, the AUC – broadly, concentration integrated over time – turned out to be 9.29 µM·h in data set [4] and 0.862 µM·h in data set [7]. The molecule also gave an AUC/dose in data set [8] of 22 µM·h.

`CC(C)N(C)[C@@H]1CC[C@H](NC(=O)CNC(=O)c2cccc(C(F)(F)F)c2)[C@H](COc2ccccc2)C1` returned a Drug metabolism in data set [1] of 0.29 nmol/min/mg.

Molecule `CC(C)N(C)[C@@H]1CC[C@H](NC(=O)CNC(=O)c2cccc(C(F)(F)F)c2)[C@H](CS(=O)(=O)c2ccccc2)C1` registered an AUC/dose in data set [8] of 1.1 µM·h. The molecule also had a Drug metabolism in data set [1] of 0.16 nmol/min/mg.
